Read-outs that look alike come from different tables or passages of the source.
Key:
Format in all cases: cell-based
[1] = test system: HCC827 cells (EGFR Exon19 del, non-small cell lung cancer cells); experiment: Cell viability assay (WST/CCK8), HCC827 cells; settings: Homo sapiens, HCC827, 72 h, read-out: IC50 (half inhibitory concentration)
Procedure, shortened: (§1)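 Plated 3 000 cells/well in complete RPMI1640 the day before dosing; controls were DMSO (negative) and EGFR TKIs (positive).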

[2] = test system: PC9 cells (EGFR Exon 19 del, non-small cell lung cancer cells); experiment: Cell viability assay (WST/CCK8), PC9 cells; settings: Homo sapiens, read-out: IC50 (half inhibitory concentration)
Procedure, shortened: as §1

[3] = test system: H1975 (EGFR T790M+L858R mutation, non-small cell lung cancer cell line); experiment: Cell viability assay (WST/CCK8), H1975 cells; settings: Homo sapiens, read-out: IC50 (half inhibitory concentration)
From the text: (§2) The cell lines with abnormal EGFR expression used are as follows: • HCC827 cells (EGFR Exon19 del, non-small cell lung cancer cells); • PC9 cells (EGFR Exon 19 del, non-small cell lung cancer cells); • PC9BracA1 (EGFR Exon 19 del+T790M, non-small cell lung cancer cells) • H1975 (EGFR Exon T790M+L858R mutation, non-small cell lung cancer cell line) • BT474 cells (HER2 positive breast cancer cells)
(§3) All of the half inhibitory concentrations (IC50) of these compounds of the present invention were determined with WST reagent from Fuyuan Biotec Company. The specific experiment procedures are as follows: Cancer cells were planted in 96-well-plate at the density of 3 000 cells per well with 100 μL RPMI1640 completed culture medium. In the next day, compounds with indicated concentrations were added to the cells, DMSO was used as the negative control and the EGFR TKIs were used to treat cells as the positive groups. After 72 hours drug treatment, cell viability was measured by using the WST reagent following the instructions.

[4] = test system: PC9BracA1 (EGFR Exon 19 del+T790M, non-small cell lung cancer cells); experiment: Cell viability assay (WST/CCK8), PC9Brac1 cells; settings: read-out: IC50 (half inhibitory concentration)
From the text: as §2, §3

[5] = test system: BT474 cells (HER2 positive breast cancer cells); experiment: Cell viability assay (CCK8), BT474 cells; settings: Homo sapiens, BT-474, Table 10, BT474, 72 hours, read-out: IC50 (half inhibitory concentration)
Procedure, shortened: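 HER2-overexpressing BT474 cells in RPMI1640 were exposed to compounds for 72 hours over 10 concentrations (3-fold dilution, top 10 μM). Viability was measured with CCK8 reagent against a DMSO control, and IC50 was taken from growth inhibition curves.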

[6] = Table 8, osimertinib-based compounds, HCC827, 72 hours, WST
[7] = PC-9, Table 8, osimertinib-based compounds, PC9, 72 hours, WST
[8] = NCI-H1975, Table 8, osimertinib-based compounds, H1975, 72 hours, WST
[9] = Table 8, osimertinib-based compounds, Pc9Brc1, 72 hours, WST
[10] = HCC827 (Exon19 Del), 72 hours, WST (CCK8)
[11] = PC-9, PC9 (Exon19 Del), 72 hours, WST (CCK8)
[12] = PC9Brac1 (Ex19del + T790M), 72 hours, WST
[13] = Table 6, canertinib-based compounds, HCC827 (Exon19 Del), 72 hours, WST
[14] = PC-9, Table 6, canertinib-based compounds, PC9 (Exon19 Del), 72 hours, WST
[15] = NCI-H1975, Table 7, canertinib-based compounds, H1975 (L858R + T790M)

Row | Structure (SMILES) | IC50 [1, 6] [nM] | IC50 [2, 7] [nM] | IC50 [3, 8] [nM] | IC50 [4, 9] [nM] | also measured
1 | C=CC(=O)Nc1cc(Nc2nccc(-c3cn(C)c4ccccc34)n2)c(OC)cc1N(C)CCN(C)CCCCCCCC#Cc1cccc2c1CN(C1CCC(=O)NC1=O)C2=O (stereo not drawn) | 9 | 161 | 117 | 413 | –
2 | C=CC(=O)Nc1cc(Nc2nccc(-c3cn(C)c4ccccc34)n2)c(OC)cc1N(C)CCN(C)C [Osimertinib, reference compound] | – | – | – | – | IC50 [1]: 0.36 nM; IC50 ([2]; PC-9, 72 h): 4 nM; IC50 ([3]; NCI-H1975, 72 h): 2 nM; IC50 ([4]; 72 h): 354 nM
3 | COc1cc2ncnc(Nc3ccc(F)c(Cl)c3)c2cc1NC(=O)/C=C/CN1CCC(NC(=O)CCCNc2cccc3c2C(=O)N(C2CCC(=O)NC2=O)C3=O)CC1 (stereo not drawn) [SIAIS249083, (E)-N-(4-((3-chloro-4-fluorophenyl)amino)-7-methoxyquinazolin-6-yl)-4-(4-(4-((2-(2,6-dioxopiperidin-3-yl)-1,3-dioxoisoindolin-4-yl)amino)butanamido)piperidin-1-yl)but-2-enamide] | – | – | – | – | IC50 [1, 10]: 5 nM; IC50 [2, 11]: 2.9 nM; IC50 [4, 12]: 435 nM; IC50 [5]: 64.9 nM
4 | COc1cc2ncnc(Nc3ccc(F)c(Cl)c3)c2cc1NC(=O)/C=C/CN1CCC(NC(=O)CCCCCNc2cccc3c2C(=O)N(C2CCC(=O)NC2=O)C3=O)CC1 (stereo not drawn) [SIAIS249084, (E)-N-(1-(4-((4-((3-chloro-4-fluorophenyl)amino)-7-methoxyquinazolin-6-yl)amino)-4-oxobut-2-en-1-yl)piperidin-4-yl)-6-((2-(2,6-dioxopiperidin-3-yl)-1,3-dioxoisoindolin-4-yl)amino)hexanamide] | – | – | – | – | IC50 [1, 10]: 3 nM; IC50 [2, 11]: 0.6 nM; IC50 [4, 12]: 434 nM; IC50 [5]: 6.08 nM
5 | COc1cc2ncnc(Nc3ccc(F)c(Cl)c3)c2cc1NC(=O)/C=C/CN1CCC(N2CCNCC2)CC1 [SIAIS262021, (E)-N-(4-((3-chloro-4-fluorophenyl)amino)-7-methoxyquinazolin-6-yl)-4-(4-(piperazin-1-yl)piperidin-1-yl)but-2-enamide] | – | – | – | – | IC50 [4, 12]: 954 nM; IC50 [5]: 32.6 nM
6 | COc1cc2ncnc(Nc3ccc(F)c(Cl)c3)c2cc1NC(=O)/C=C/CN1CCC(N2CCN(C(=O)CSc3cccc4c3CN(C3CCC(=O)NC3=O)C4=O)CC2)CC1 (stereo not drawn) [SIAIS262034, (E)-N-(4-((3-chloro-4-fluorophenyl)amino)-7-methoxyquinazolin-6-yl)-4-(4-(4-(2-((2-(2,6-dioxopiperidin-3-yl)-1-oxoisoindolin-4-yl)thio)acetyl)piperazin-1-yl)piperidin-1-yl)but-2-enamide] | – | – | – | – | IC50 [1, 10]: 3.6 nM; IC50 [2, 11]: 11.3 nM; IC50 ([3]; NCI-H1975, H1975 (L858R + T790M), 72 hours, WST): 828 nM
7 | C=CC(=O)Nc1cc2c(Nc3ccc(F)c(Cl)c3)ncnc2cc1OCCCN1CCN(C(=O)CCOCCOCCNc2cccc3c2C(=O)N(C2CCC(=O)NC2=O)C3=O)CC1 (stereo not drawn) [SIAIS262127, N-(4-((3-chloro-4-fluorophenyl)amino)-7-(3-(4-(3-(2-(2-((2-(2,6-dioxopiperidin-3-yl)-1,3-dioxoisoindolin-4-yl)amino)ethoxy)ethoxy)propanoyl)piperazin-1-yl)propoxy)quinazolin-6-yl)acrylamide] | – | – | – | – | IC50 [1, 13]: 6.4 nM; IC50 [2, 14]: 9.7 nM; IC50 [3, 15]: 468 nM; IC50 ([4]; Table 7, canertinib-based compounds, PC9Brca1 (Ex19del + T790M)): 423 nM
8 | C=CC(=O)Nc1cc2c(Nc3ccc(F)c(Cl)c3)ncnc2cc1OCCCN1CCC(N2CCN(C(=O)CCCCSc3cccc4c3CN(C3CCC(=O)NC3=O)C4=O)CC2)CC1 (stereo not drawn) [SIAIS262175, N-(4-((3-chloro-4-fluorophenyl)amino)-7-(3-(4-(4-(5-((2-(2,6-dioxopiperidin-3-yl)-1-oxoisoindolin-4-yl)thio)pentanoyl)piperazin-1-yl)piperidin-1-yl)propoxy)quinazolin-6-yl)acrylamide] | – | – | – | – | IC50 [1, 13]: 6.7 nM; IC50 [2, 14]: 17 nM; IC50 [3, 15]: 430 nM; IC50 [5]: 22.5 nM
9 | C=CC(=O)Nc1cc(Nc2nccc(-c3cn(C)c4ccccc34)n2)c(OC)cc1N(C)CCN(C)C(=O)COCCSc1cccc2c1CN(C1CCC(=O)NC1=O)C2=O (stereo not drawn) [SIAIS337074, N-(2-((2-(2-(2-((2-(2,6-dioxopiperidin-3-yl)-1-oxoisoindolin-4-yl)thio)ethoxy)-N-methylacetamido)ethyl)(methyl)amino)-4-methoxy-5-((4-(1-methyl-1H-indol-3-yl)pyrimidin-2-yl)amino)phenyl)acrylamide] | 3 | 91 | 145 | 238 | –
10 | C=CC(=O)Nc1cc(Nc2nccc(-c3cn(C)c4ccccc34)n2)c(OC)cc1N(C)CCN(C)CCCSc1cccc2c1CN(C1CCC(=O)NC1=O)C2=O (stereo not drawn) [SIAIS337079, N-(2-((2-((3-((2-(2,6-dioxopiperidin-3-yl)-1-oxoisoindolin-4-yl)thio)propyl)(methyl)amino)ethyl)(methyl)amino)-4-methoxy-5-((4-(1-methyl-1H-indol-3-yl)pyrimidin-2-yl)amino)phenyl)acrylamide] | 879 | 373 | 70 | 366 | –
11 | C=CC(=O)Nc1cc(Nc2nccc(-c3cn(C)c4ccccc34)n2)c(OC)cc1N(C)CCN(C)CCCCCCCCSc1cccc2c1CN(C1CCC(=O)NC1=O)C2=O (stereo not drawn) [SIAIS337084, N-(2-((2-((8-((2-(2,6-dioxopiperidin-3-yl)-1-oxoisoindolin-4-yl)thio)octyl)(methyl)amino)ethyl)(methyl)amino)-4-methoxy-5-((4-(1-methyl-1H-indol-3-yl)pyrimidin-2-yl)amino)phenyl)acrylamide] | 353 | 271 | – | 686 | –

Continued, in another order:

Row | IC50 [1, 6] [nM] | IC50 [2, 7] [nM] | IC50 [3, 8] [nM] | IC50 [4, 9] [nM] | Structure (SMILES) | also measured
12 | 1 | 2 | 1 | 479 | C=CC(=O)Nc1cc(Nc2nccc(-c3cn(C)c4ccccc34)n2)c(OC)cc1N(C)CCNC [SIAIS337051, N-(4-methoxy-2-(methyl(2-(methylamino)ethyl)amino)-5-((4-(1-methyl-1H-indol-3-yl)pyrimidin-2-yl)amino)phenyl)acrylamide] | –
13 | 114 | – | – | 973 | C=CC(=O)Nc1cc(Nc2nccc(-c3cn(C)c4ccccc34)n2)c(OC)cc1N(C)CCN(C)C(=O)CCCCCSc1cccc2c1CN(C1CCC(=O)NC1=O)C2=O (stereo not drawn) [SIAIS337056, N-(2-((2-acrylamido-5-methoxy-4-((4-(1-methyl-1H-indol-3-yl)pyrimidin-2-yl)amino)phenyl)(methyl)amino)ethyl)-6-((2-(2,6-dioxopiperidin-3-yl)-1-oxoisoindolin-4-yl)thio)-N-methylhexanamide] | –
14 | 10 | 459 | 187 | 303 | C=CC(=O)Nc1cc(Nc2nccc(-c3cn(C)c4ccccc34)n2)c(OC)cc1N(C)CCN(C)C(=O)COCCOCCOCCSc1cccc2c1CN(C1CCC(=O)NC1=O)C2=O (stereo not drawn) [SIAIS337076, N-(2-((14-((2-(2,6-dioxopiperidin-3-yl)-1-oxoisoindolin-4-yl)thio)-3-methyl-4-oxo-6,9,12-trioxa-3-azatetradecyl)(methyl)amino)-4-methoxy-5-((4-(1-methyl-1H-indol-3-yl)pyrimidin-2-yl)amino)phenyl)acrylamide] | –
15 | 184 | 134 | 18 | 207 | C=CC(=O)Nc1cc(Nc2nccc(-c3cn(C)c4ccccc34)n2)c(OC)cc1N(C)CCN(C)CCCCCSc1cccc2c1CN(C1CCC(=O)NC1=O)C2=O (stereo not drawn) [SIAIS337081, N-(2-((2-((5-((2-(2,6-dioxopiperidin-3-yl)-1-oxoisoindolin-4-yl)thio)pentyl)(methyl)amino)ethyl)(methyl)amino)-4-methoxy-5-((4-(1-methyl-1H-indol-3-yl)pyrimidin-2-yl)amino)phenyl)acrylamide] | –

From patent US12564638B2 (SHANGHAITECH UNIVERSITY, priority 2019, dated 2026)
